Calls of active or inactive are those of the source.
How the values were obtained:
Cytochrome P450 2C19 = Cytochrome P450 2C19 (Homo sapiens, UniProt P33261); experiment: Cytochrome panel assay with activity outcomes. Panel member name: p450-cyp2c19 Compounds with AC50 equal or less than 10 uM are considered active; type: functional; details: read-out: AC50
Cytochrome P450 3A4 = Cytochrome P450 3A4 (Homo sapiens, UniProt P08684);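 further: CYP3A4 tested as one member of a cytochrome P450 panel screen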
[1] = NIH-3T3 fibroblast cytotoxicity, dose response, cytotoxicity control, cell-based, fluorescence, Alamar Blue, secondary assay (AID 2327); type: functional;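 further: NIH-3T3 mouse fibroblasts cultured with fluconazole at 8 µg/mL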
[2] = C. albicans growth with fluconazole, confirmation, fluorescence, retest (AID 2467); type: functional, cell-based
[3] = molecular target: T1, E3 ubiquitin-protein ligase XIAP (Homo sapiens, UniProt P98170); experiment: Counter Screen using XIAP-Bir3 for Chemical Antagonists of Bir1/2 domains of IAP-family anti-apoptotic proteins. [Related pubchem assays (depositor defined):AID1018, AID1449, AID1514, AID1638, AID1749, AID1750, AID488957, AID488963]
[4] = cytotoxicity toward NIH3T3 fibroblasts, dose response, counter-screen, cell-based, ATP luminescence, mouse fibroblasts (AID 2010); type: functional;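 further: cells exposed to compound for about 90 hours before reading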
[5] = inhibitors of intracellular T. cruzi replication, confirmation, NIH3T3 host cells, beta-gal luminescence (AID 2044); type: functional, cell-based;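 further: intracellular parasites grown in NIH/3T3 mouse fibroblasts as host cells; luminescent beta-galactosidase reporter signal from transgenic T. cruzi replicating inside host cells; inhibitors lower the luminescence signal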
[6] = molecular target: T1, E3 ubiquitin-protein ligase XIAP; experiment: XIAP antagonists, biochemical, IAP family, fluorescence polarization (AID 1018); type: functional
[7] = molecular target: Intestinal-type alkaline phosphatase (Homo sapiens, UniProt P09923); experiment: Dose Response confirmation of uHTS hits from a small molecule inhibitors of human intestinal alkaline phosphatase via a luminescent assay. [Related pubchem assays (depositor defined):AID2544, AID2574]; type: functional
[8] = HEp-2 cell cytotoxicity, dose response, cytotoxicity control for RSV inhibitor project, HTS (AID 2410); type: functional; details: human respiratory syncytial virus
BJ [9] = experiment: cells; type: functional, cell-based; details: Homo sapiens
BJ [10] = experiment: cytotoxicity toward BJ-TERT-LT-ST fibroblasts, dose response, cell-based, RAS-independent, luminescence (AID 1935); type: functional; details: Homo sapiens;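 further: BJ fibroblasts immortalized with TERT plus LT and ST oncogenes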
BJ [11] = experiment: cytotoxicity toward BJ-TERT fibroblasts, dose response, cell-based, RAS-independent, luminescence (AID 1933); type: functional; details: Homo sapiens
[12] = cytotoxicity toward DRD oncogenic fibroblasts, dose response, cell-based, non-viral oncogenic, luminescence (AID 1934); type: functional; details: Homo sapiens
Large T antigen = Large T antigen (Simian virus 40, UniProt P03070); type: functional, Betapolyomavirus macacae;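 further: Confirmatory-stage PubChem screen for compounds that inhibit SV40 T antigen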
[13] = molecular target: T2, Histone-lysine N-methyltransferase NSD2 (Homo sapiens, UniProt O96028); type: biochemical
T2 sequence (O96028 whole entry): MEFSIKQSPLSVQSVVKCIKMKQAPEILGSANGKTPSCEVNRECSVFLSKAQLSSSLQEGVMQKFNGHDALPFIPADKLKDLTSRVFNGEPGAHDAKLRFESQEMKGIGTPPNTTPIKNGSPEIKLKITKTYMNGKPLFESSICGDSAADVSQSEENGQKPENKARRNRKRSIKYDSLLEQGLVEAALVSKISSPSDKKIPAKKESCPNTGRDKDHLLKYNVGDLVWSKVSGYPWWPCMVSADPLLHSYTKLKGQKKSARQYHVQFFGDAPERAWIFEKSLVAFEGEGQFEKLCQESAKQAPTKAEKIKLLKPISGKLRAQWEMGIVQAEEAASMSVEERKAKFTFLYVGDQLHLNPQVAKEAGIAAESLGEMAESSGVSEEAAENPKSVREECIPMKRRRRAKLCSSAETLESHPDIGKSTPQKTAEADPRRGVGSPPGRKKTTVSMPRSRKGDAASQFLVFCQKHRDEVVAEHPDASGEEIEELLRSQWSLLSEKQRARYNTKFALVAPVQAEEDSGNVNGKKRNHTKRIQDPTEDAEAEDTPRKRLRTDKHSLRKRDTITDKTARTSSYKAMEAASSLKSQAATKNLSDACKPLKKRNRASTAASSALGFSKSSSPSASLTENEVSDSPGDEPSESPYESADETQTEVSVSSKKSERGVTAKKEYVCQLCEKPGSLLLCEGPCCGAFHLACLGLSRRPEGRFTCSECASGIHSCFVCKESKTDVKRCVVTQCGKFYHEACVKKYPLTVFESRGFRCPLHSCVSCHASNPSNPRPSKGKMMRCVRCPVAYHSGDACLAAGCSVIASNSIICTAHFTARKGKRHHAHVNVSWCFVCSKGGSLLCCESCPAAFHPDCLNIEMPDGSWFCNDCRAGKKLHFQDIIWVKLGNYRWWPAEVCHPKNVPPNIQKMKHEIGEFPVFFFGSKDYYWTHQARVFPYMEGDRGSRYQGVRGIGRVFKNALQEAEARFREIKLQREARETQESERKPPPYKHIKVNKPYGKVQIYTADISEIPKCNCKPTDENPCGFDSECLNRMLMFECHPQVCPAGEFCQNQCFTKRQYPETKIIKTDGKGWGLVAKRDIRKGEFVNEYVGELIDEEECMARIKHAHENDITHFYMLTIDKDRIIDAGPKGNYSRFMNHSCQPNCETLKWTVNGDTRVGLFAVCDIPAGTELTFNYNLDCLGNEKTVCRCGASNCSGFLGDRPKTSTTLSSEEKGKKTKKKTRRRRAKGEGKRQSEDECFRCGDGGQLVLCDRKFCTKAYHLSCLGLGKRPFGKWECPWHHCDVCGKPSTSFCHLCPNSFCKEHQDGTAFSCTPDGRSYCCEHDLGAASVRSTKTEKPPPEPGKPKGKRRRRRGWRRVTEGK

[14] = Luminescence Cell-Based Dose Retest to Confirm Inhibitors of Cancer Stem Cells. [Related pubchem assays (depositor defined):AID2717, AID2721]; type: functional; details: Homo sapiens
[15] = molecular target: Neurotensin receptor type 1 (Homo sapiens, UniProt P30989); type: functional;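 further: Image-based confirmatory dose-response assay measuring agonist activity at NTR1; NTR1-expressing U2OS osteosarcoma cells imaged for beta-arrestin GFP spot formation; agonist potency where compounds increase beta-arrestin recruitment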
[16] = molecular target: T3, C-C chemokine receptor type 6 (Homo sapiens, UniProt P51684); experiment: CCR6 receptor antagonists, dose response, cell-based, luminescent beta-arrestin readout (AID 504728); type: functional
T3 sequence (P51684 whole entry): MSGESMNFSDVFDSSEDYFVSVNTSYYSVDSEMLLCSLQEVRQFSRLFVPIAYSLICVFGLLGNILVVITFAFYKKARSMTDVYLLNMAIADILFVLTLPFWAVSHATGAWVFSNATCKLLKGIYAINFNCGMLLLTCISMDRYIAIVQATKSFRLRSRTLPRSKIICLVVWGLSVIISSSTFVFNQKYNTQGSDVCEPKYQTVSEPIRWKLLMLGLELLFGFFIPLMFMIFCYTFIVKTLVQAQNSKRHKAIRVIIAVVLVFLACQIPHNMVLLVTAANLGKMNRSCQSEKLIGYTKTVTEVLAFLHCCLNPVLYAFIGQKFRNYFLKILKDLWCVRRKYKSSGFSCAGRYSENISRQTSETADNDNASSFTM

Beta-galactosidase = Beta-galactosidase (Escherichia coli, UniProt Q8VNN2); experiment: beta-galactosidase enzyme inhibitors and activators, dose response, artefact control for CCR6 antagonist project, biochemical, E. coli enzyme, set 3 (AID 504712); type: functional
[17] = molecular target: Dual specificity tyrosine-phosphorylation-regulated kinase 1A (Rattus norvegicus, UniProt Q63470); type: biochemical, Homo sapiens
Cytochrome P450 2C9 = Cytochrome P450 2C9 (Homo sapiens, UniProt P11712)
Cytochrome P450 1A2 = molecular target: T4, Cytochrome P450 1A2 (Homo sapiens, UniProt P05177);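 further: PubChem cytochrome P450 panel assay, CYP1A2 panel member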
T4 sequence (P05177 whole entry): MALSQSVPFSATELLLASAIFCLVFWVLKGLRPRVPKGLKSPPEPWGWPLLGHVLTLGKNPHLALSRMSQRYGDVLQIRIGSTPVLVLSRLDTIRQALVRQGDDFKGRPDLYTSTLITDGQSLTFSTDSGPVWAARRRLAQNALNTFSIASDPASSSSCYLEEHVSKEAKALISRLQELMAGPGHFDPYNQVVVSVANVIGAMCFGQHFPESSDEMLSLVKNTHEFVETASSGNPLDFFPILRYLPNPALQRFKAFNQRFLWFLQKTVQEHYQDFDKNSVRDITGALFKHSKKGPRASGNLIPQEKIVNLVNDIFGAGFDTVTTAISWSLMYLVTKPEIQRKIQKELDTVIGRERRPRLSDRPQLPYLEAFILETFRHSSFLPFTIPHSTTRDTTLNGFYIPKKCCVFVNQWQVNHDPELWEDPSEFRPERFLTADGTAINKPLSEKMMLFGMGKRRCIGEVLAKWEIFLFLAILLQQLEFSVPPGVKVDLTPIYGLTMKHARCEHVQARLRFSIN

Chain of Cytochrome P450 2C19 (P33261 whole entry): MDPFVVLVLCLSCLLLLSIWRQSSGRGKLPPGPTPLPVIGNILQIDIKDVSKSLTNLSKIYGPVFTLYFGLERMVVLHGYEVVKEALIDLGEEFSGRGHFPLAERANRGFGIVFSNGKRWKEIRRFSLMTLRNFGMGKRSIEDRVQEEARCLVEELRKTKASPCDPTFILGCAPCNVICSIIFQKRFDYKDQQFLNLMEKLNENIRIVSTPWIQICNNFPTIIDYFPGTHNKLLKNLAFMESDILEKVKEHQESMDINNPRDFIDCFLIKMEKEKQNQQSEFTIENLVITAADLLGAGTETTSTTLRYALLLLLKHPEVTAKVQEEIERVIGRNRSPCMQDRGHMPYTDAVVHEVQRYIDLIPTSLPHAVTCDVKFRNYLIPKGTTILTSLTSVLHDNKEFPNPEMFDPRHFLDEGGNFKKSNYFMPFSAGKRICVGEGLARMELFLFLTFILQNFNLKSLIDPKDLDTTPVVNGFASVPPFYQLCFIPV
Chain of Cytochrome P450 3A4 (P08684 whole entry): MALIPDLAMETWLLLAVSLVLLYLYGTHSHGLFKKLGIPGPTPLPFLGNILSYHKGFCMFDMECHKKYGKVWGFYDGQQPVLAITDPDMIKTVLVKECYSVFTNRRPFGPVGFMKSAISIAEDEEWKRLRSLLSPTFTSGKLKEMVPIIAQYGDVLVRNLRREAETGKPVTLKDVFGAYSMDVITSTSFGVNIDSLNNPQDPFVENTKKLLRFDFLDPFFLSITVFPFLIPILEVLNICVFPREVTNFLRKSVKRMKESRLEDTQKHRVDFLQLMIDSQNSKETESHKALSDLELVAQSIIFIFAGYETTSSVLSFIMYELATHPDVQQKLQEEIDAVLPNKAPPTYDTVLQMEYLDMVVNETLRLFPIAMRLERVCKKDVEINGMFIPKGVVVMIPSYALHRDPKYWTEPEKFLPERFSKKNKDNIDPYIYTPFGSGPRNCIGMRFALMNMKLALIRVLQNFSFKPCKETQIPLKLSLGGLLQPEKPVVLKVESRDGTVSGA
T1 sequence (P98170 whole entry): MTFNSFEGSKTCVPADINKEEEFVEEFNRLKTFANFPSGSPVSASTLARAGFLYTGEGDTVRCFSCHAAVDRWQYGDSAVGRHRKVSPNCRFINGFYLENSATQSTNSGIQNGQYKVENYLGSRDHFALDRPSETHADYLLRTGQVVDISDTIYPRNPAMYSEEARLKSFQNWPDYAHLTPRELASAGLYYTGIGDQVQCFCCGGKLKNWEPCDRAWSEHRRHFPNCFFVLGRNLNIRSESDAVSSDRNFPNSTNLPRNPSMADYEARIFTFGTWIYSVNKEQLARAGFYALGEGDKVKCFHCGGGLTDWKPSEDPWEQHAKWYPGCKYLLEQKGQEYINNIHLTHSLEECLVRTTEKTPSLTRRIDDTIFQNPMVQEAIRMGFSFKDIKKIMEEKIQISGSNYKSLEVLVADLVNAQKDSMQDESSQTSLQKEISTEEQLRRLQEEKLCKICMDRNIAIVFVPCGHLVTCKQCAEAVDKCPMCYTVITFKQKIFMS
Chain of Large T antigen (P03070 whole entry): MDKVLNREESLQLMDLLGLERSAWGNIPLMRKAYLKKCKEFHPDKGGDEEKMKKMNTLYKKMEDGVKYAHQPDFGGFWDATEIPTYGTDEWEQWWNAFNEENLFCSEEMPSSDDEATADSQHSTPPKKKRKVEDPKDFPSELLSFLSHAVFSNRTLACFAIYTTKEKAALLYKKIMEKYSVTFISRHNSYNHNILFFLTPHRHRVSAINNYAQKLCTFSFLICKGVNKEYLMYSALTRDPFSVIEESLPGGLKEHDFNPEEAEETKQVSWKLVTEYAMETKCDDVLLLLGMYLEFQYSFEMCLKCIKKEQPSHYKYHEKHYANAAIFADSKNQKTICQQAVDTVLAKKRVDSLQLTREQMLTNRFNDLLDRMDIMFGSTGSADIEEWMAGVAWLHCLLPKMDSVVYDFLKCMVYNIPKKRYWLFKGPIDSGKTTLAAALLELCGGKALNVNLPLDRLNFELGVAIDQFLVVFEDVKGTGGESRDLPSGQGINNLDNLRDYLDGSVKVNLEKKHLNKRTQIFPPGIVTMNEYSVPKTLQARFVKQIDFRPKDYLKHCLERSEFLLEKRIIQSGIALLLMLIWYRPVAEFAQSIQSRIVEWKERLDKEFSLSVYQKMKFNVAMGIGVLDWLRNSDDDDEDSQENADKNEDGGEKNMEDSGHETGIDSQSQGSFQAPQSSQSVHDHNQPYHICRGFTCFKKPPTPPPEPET
Chain of Beta-galactosidase (Q8VNN2 whole entry): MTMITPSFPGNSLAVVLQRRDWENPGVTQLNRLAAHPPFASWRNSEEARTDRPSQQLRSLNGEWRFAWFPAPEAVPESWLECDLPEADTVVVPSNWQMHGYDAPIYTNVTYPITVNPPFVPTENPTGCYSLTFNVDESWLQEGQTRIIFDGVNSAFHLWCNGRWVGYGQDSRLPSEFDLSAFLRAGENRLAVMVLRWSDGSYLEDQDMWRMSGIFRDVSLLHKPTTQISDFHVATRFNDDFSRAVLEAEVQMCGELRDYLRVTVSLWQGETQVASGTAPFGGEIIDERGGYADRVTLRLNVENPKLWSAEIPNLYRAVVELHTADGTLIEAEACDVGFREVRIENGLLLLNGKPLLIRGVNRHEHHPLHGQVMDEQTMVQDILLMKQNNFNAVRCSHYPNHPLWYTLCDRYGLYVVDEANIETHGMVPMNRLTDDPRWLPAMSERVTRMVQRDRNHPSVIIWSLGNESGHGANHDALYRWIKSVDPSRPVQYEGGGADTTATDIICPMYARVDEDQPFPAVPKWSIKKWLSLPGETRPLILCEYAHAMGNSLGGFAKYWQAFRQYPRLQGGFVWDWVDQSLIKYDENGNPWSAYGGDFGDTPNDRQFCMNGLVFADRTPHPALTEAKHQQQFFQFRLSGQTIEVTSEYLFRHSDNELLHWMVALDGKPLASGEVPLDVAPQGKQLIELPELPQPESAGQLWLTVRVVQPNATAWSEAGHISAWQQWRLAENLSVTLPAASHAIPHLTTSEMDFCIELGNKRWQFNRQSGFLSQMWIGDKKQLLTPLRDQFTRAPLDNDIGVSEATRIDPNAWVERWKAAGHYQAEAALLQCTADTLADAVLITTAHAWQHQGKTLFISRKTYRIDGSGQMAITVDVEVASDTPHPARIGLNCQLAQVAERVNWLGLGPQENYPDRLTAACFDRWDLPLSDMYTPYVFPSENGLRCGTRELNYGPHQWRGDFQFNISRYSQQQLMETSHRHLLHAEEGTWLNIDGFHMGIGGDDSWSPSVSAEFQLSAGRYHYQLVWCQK
Chain of Cytochrome P450 2C9 (P11712 whole entry): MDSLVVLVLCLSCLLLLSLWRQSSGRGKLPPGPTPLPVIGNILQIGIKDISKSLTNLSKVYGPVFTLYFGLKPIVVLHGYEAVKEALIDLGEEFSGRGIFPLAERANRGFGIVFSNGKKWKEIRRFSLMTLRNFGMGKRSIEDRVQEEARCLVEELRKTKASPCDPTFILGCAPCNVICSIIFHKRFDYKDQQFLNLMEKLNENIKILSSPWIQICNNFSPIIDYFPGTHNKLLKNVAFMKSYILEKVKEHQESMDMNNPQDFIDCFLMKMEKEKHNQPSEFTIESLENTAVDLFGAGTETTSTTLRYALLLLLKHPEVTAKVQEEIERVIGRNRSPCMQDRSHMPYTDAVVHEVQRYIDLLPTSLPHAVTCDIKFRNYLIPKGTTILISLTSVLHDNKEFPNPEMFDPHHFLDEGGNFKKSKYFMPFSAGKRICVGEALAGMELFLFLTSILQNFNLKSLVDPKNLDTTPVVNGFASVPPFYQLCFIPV
Chain of Neurotensin receptor type 1 (P30989 whole entry): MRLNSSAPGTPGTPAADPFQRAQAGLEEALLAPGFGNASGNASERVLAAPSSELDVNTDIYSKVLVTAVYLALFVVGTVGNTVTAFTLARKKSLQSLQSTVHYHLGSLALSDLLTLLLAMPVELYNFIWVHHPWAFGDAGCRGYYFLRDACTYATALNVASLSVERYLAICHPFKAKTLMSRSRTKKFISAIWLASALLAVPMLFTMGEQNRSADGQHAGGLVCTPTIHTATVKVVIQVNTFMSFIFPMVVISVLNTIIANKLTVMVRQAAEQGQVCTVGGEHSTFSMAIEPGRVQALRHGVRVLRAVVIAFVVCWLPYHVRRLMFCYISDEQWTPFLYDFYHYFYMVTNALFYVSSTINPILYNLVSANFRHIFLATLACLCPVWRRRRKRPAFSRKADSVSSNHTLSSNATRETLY
Chain of Intestinal-type alkaline phosphatase (P09923 whole entry): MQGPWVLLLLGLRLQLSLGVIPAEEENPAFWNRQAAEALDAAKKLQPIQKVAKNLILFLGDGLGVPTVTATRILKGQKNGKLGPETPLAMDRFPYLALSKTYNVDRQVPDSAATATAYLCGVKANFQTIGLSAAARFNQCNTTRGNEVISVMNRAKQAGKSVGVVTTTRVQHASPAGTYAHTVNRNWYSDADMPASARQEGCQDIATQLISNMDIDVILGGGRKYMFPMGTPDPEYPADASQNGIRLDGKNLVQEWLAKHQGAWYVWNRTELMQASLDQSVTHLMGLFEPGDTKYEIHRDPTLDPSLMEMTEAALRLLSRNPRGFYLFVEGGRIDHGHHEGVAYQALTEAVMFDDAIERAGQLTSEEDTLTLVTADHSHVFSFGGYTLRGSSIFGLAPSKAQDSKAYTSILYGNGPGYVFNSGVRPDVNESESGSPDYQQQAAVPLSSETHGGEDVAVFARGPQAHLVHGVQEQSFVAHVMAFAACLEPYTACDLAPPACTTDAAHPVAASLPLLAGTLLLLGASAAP

For Cc1c2c(nc3c(C(=O)NC4CCCC4)cnn13)CCCC2, the AC50 (Cytochrome P450 2C19) was 39.8 µM (inconclusive) and the AC50 (Cytochrome P450 3A4) was “inconclusive”.

For O=C1CN2C(=Nc3ccc(Cl)cc3C2c2ccccc2)CN1 (configuration not stated), the IC50 (cells) was 24.2 µM (active), the EC50 [1] was > 160 µM (inactive) and the EC50 [2] was 3.04 µM (active).

In the case of S=C(Nc1ccc(Br)cc1)N1CCn2cccc2C1c1cccnc1 (configuration not stated), the IC50 [3] is reported as > 100 µM (inactive), the EC50 [4] is reported as > 60 µM (not active) and the EC50 [5] is reported as 0.605 µM (active). The IC50 [6] was > 100 µM (not active).

With COc1cc(/C=C/C(=O)OCC(=O)NC(=O)NC2CCCCC2)ccc1OC(F)F the IC50 [7] was > 100 µM (inactive).

With CCOC(=O)c1sc(NC(=O)Cn2nnc3sc4c(c3c2=O)CCC(C(C)(C)C)C4)nc1C (configuration not stated) the IC50 (cells) was > 25 µM (active) and the CC50 [8] was 23.7 µM (active).

For Cc1ccc(C(=O)c2ccc(N3CCN(C)CC3)c([N+](=O)[O-])c2)cc1, the EC50 (BJ [9]) was > 150 µM (not active), the EC50 (BJ [10]) was > 150 µM (not active) and the EC50 (BJ [11]) was > 150 µM (not active). The EC50 [12] was > 150 µM (not active).

For COc1cc(/C=C2\C(=O)ON=C2c2ccc(Cl)cc2)ccc1O, the IC50 (Large T antigen) was 14.6 µM (active), the AC50 [13] was > 20 µM (inactive) and the AC50 [14] was 1.76 µM (active). For the same compound, the EC50 [15] was 12.1 µM (active).

For Cc1ccc(C(=C2C3C=CC2C2C(=O)NC(=O)C32)c2ccc(C)cc2)cc1 (configuration not stated), the IC50 [16] was > 66.6 µM (inactive) and the IC50 (Beta-galactosidase) was > 66.6 µM (inactive).

In the case of C=C(C)[C@@H](O)COc1c2ccoc2cc2oc(=O)ccc12, the AC50 [17] is reported as 9.08 µM (active).

For O=C(c1cc(-c2ccccc2Cl)on1)N1CCN(C(=O)c2ccco2)CC1, the AC50 (Cytochrome P450 2C9) was “inconclusive”, the AC50 (Cytochrome P450 1A2) was 25.1 µM (inconclusive) and the AC50 (Cytochrome P450 2C19) was 25.1 µM (inconclusive). The AC50 (Cytochrome P450 3A4) was “inconclusive”.

— ChEMBL document CHEMBL1201862, “PubChem BioAssay data set” (2004)
